Experimental data: PubChem BioAssay AID192 (DTP/NCI, 2004)
Several values for one entry are separate records, joined by “and”; a condition that tells them apart may be missing. Equal entries are not always repeated. Inconclusive results and toxic doses are left out.

Test system: BDF1 mice, B16 melanoma ip, median survival T/C
Assay: NCI In Vivo Anticancer Drug Screen. Data for tumor model B16 Melanoma (intraperitoneal) in B6D2F1 (BDF1) mice
Details: endpoint: median survival time, higher = longer survival
In short: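 Tumor-bearing mice received test compound or vehicle. Survival or tumor size was then measured in both groups. The treated-group figure was divided by the control-group figure.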

[1] = dose: 25.0 mg/kg/injection, schedule: Q01DX009 (ip), vehicle: Klucel (hydroxypropylcellulose) (HPC)
[2] = dose: 50.0 mg/kg/injection, schedule: Q01DX009 (ip), vehicle: Klucel (hydroxypropylcellulose) (HPC)
[3] = dose: 100.0 mg/kg/injection, schedule: Q01DX009 (ip), vehicle: Klucel (hydroxypropylcellulose) (HPC)
[4] = dose: 200.0 mg/kg/injection, schedule: Q01DX009 (ip), vehicle: Klucel (hydroxypropylcellulose) (HPC)
[5] = dose: 400.0 mg/kg/injection, schedule: Q01DX009 (ip), vehicle: Klucel (hydroxypropylcellulose) (HPC)

In the case of `C[C@@H]1C[C@@]2(C)[C@@H](CC[C@@H]3[C@@H]2CC[C@]2(C)[C@@H](OC4CCCCO4)CC[C@@H]32)CC1=O` (some centres undefined), the T/C [1] is reported as 105 % of control, the T/C [2] is reported as 100 % of control and the T/C [3] is reported as 100 % of control.

With `O=C(Nc1ccc(NC2=NCCN2)cc1)c1cccc(C(=O)Nc2ccc(NC3=NCCN3)cc2)c1` the T/C (dose: 7.5 mg/kg/injection, schedule: Q01DX009 (ip), vehicle: saline with Tween-80) was 105 % of control, the T/C (dose: 7.5 mg/kg/injection, schedule: Q04DX003 (ip), vehicle: saline with Tween-80) was 100 % of control and the T/C (dose: 15.0 mg/kg/injection, schedule: Q01DX009 (ip), vehicle: saline with Tween-80) was 92 % of control. For the same compound, the T/C (dose: 15.0 mg/kg/injection, schedule: Q04DX003 (ip), vehicle: saline with Tween-80) was 88 % of control and the T/C (dose: 30.0 mg/kg/injection, schedule: Q04DX003 (ip), vehicle: saline with Tween-80) was 100 % of control.

For `CCCCCCC(=O)C(CCCC)(C(=O)OCC)C(=O)OCC`, the T/C [3] was 89 % of control.

For `C=C1C(=O)O[C@@H]2C[C@@H](C)[C@@H]3[C@@H](OC4OC(COC(C)=O)C(O)C(O)C4O)CC(=O)[C@@]3(C)C[C@H]12` (some centres undefined), the T/C (dose: 6.4 mg/kg/injection, schedule: Q01DX009 (ip), vehicle: saline) was 95 % of control, the T/C (dose: 9.6 mg/kg/injection, schedule: Q01DX009 (ip), vehicle: saline) was 100 % of control and the T/C (dose: 14.0 mg/kg/injection, schedule: Q01DX009 (ip), vehicle: saline) was 100 % of control. For the same compound, the T/C (dose: 22.0 mg/kg/injection, schedule: Q01DX009 (ip), vehicle: saline) was 100 % of control.

`CC(=O)OCC1OC(OC(C)=O)C(NC(=O)N(CCCl)N=O)C(OC(C)=O)C1OC(C)=O` (centres undefined) was tested, and the T/C (dose: 0.75 mg/kg/injection, schedule: Q01DX009 (ip), vehicle: Klucel (hydroxypropylcellulose) (HPC)) was 162 % of control, the T/C (dose: 1.0 mg/kg/injection, schedule: Q01DX009 (ip), vehicle: Klucel (hydroxypropylcellulose) (HPC)) was 152 % of control and the T/C (dose: 1.5 mg/kg/injection, schedule: Q01DX009 (ip), vehicle: Klucel (hydroxypropylcellulose) (HPC)) was 180 % of control. The T/C (dose: 2.0 mg/kg/injection, schedule: Q01DX009 (ip), vehicle: Klucel (hydroxypropylcellulose) (HPC)) was 188 % of control and 287 % of control, the T/C (dose: 3.0 mg/kg/injection, schedule: Q01DX009 (ip), vehicle: Klucel (hydroxypropylcellulose) (HPC)) was 208 % of control and the T/C (dose: 4.0 mg/kg/injection, schedule: Q01DX009 (ip), vehicle: Klucel (hydroxypropylcellulose) (HPC)) was 232 % of control.

With `CC(=O)CC(=O)Nc1ccc(C(=O)O)c(O)c1` the T/C [3] was 86 % of control and the T/C [4] was 89 % of control.

With `CCCCCCCCCCCCNC(=O)Nc1cccc(C)c1C` the T/C [3] was 100 % of control, the T/C [4] was 100 % of control and the T/C [5] was 96 % of control.

In the case of `CCCCCCCCCCCCCCCCCC(=O)NN`, the T/C (dose: 12.5 mg/kg/injection, schedule: Q01DX009 (ip), vehicle: Klucel (hydroxypropylcellulose) (HPC)) is reported as 103 % of control, the T/C [1] is reported as 98 % of control and the T/C [2] is reported as 105 % of control. For the same compound, the T/C (dose: 100.0 mg/kg/injection, schedule: Q01DX009 (ip), vehicle: carboxymethylcellulose (CMC)) was 94 % of control.

For `CC(=O)OCC1OC(n2ccc(N)nc2=O)C(OC(C)=O)C1OC(C)=O` (centres undefined), the T/C (dose: 12.5 mg/kg/injection, schedule: Q01DX009 (ip), vehicle: saline) was 105 % of control, the T/C (dose: 25.0 mg/kg/injection, schedule: Q01DX009 (ip), vehicle: saline) was 105 % of control and the T/C (dose: 50.0 mg/kg/injection, schedule: Q01DX009 (ip), vehicle: saline) was 105 % of control. For the same compound, the T/C (dose: 100.0 mg/kg/injection, schedule: Q01DX009 (ip), vehicle: saline) was 109 % of control.

For `O=S(=O)(O)O.[NH-]CC1(C[NH-])CCCCC1.[Pt+2]`, the T/C (dose: 8.0 mg/kg/injection, schedule: Q04DX003 (ip), vehicle: dextrose) was 161 % of control.

In the case of `CNC(=O)Nc1cccc2c(=O)[nH][nH]c(=O)c12`, the T/C (dose: 100.0 mg/kg/injection, schedule: Q04DX003 (ip), vehicle: Klucel (hydroxypropylcellulose) (HPC)) is reported as 112 % of control, the T/C (dose: 200.0 mg/kg/injection, schedule: Q04DX003 (ip), vehicle: Klucel (hydroxypropylcellulose) (HPC)) is reported as 102 % of control and the T/C (dose: 400.0 mg/kg/injection, schedule: Q04DX003 (ip), vehicle: Klucel (hydroxypropylcellulose) (HPC)) is reported as 91 % of control.

With `CCC(C)C1CCCCC1` (centres undefined) the T/C [3] was 91 % of control, the T/C [4] was 108 % of control and the T/C [5] was 98 % of control.
